Reference: US20260240768A1, “PHARMACEUTICAL COMPOSITION COMPRISING NFL-TBS40-63 PEPTIDE, VARIANTS OR SALTS THEREOF AND ALANINE” (GLIOCURE, priority 2022, published 2026)
Where “and” joins values, the source holds several entries; their conditions need not be identical. Equal entries are not always repeated. Entries after “also recorded” stand apart in the source; their conditions may differ. Where two headings read alike, the source gives them in different places. One block for each molecule: values may come before it. Where a SMILES comes first, the peptide text is derived from it. The star is where a group is joined. Biotin = O=C1N[C@H]2[C@H](CS[C@H]2CCCCC(=O)*)N1

Experiments:
[1] = Filtration test (0.2 μm filter); type: physicochemical; details: for effect on the presence of fibrils in NFL-TBS40-63 formulation: amino acid added instead of alanine
Protocol: Several formulations (containing NFL-TBS40-63 and various buffers, solubilizing and osmolarity adjusting agents) were tested for their aptitude to pass a 0.2 μm filter. […] The ease of filtration (manual pressure required) was recorded.
For grade 1 formulations, further filtration tests were performed with higher volumes of the test formulation, and a deliberately small filter area size, e.g. a 25 mm diameter with pores of 0.2 μm with 100 ml of the test formulation.

[2] = Visual dissolution test / solubility of the peptide; type: physicochemical
[3] = Clarity test - degree of opalescence; type: physicochemical
Protocol: For preparations where the NFL-TBS40-63 peptide appeared to be visually dissolved (following the visual dissolution test), the clarity (opalescence) of the preparation was assessed, via visual inspection after placing the colourless glass tube close to a white light source. The degree of opalescence was a very useful predictor of a given preparation's ability to pass or block a sterilizing filter.

[4] = Dynamic Light Scattering (DLS); type: physicochemical
Protocol: FIG. 4A-C: DLS graphs showing the effect of the heating of the formulation containing L-alanine at different temperatures before adding NFL-TBS40-63 peptide followed by mixing for 1 h30 at A. room temperature (RT); B. 30-35° C., and C. 40-45° C. […] Low attenuator values (e.g. ≤8) indicate that there were substantially more particles in the sample.
Dynamic Light Scattering (DLS) measurements were performed on the several formulations of grade 1 and 2 using a Malvern Nano-S instrument. Although the technique is not quantitative, it provided important information on the relative size of the objects (fibrils) present in the various formulations, throughout out the process of dissolution.
The attenuator value also gives a measure of the quantity of particles present: the higher the attenuator value, the less particles present.

[5] = Transmission Electron Microscopy (TEM) of fibrils; type: physicochemical
Protocol: Transmission Electron Microscopy imaging of various formulations was performed using a Jeol JEM-1400 instrument. Sample preparation was as follows: one drop of the liquid to be examined was deposited onto a TEM gird and allowed to settle for ~1 minute. Excess liquid was then absorbed with blotting paper, and one drop of a 2% solution of uranyl acetate was deposited on the grid. After ~2 minutes the excess solution was absorbed with blotting paper, and the grid was rinsed twice, using with a drop of water each time. The grid was then dried, prior to examination in the TEM. This technique allowed visualization of the fibrils of NFL-TBS40-63 peptide in the various formulations and in water.

[6] = Scanning Electron Microscopy (SEM) of dry powder; type: physicochemical; details: Lot AW18189D and Lot HF44004B
Protocol: Scanning Electron Microscopy of NFL-TBS40-63 peptide dry powder was performed using an Jeol 6301F instrument. In brief, NFL-TBS40-63 peptide was lightly sprinkled onto double sided tape fixed to a SEM stub. Excess powder was shaken/tapped off, so as to leave a very thin layer of powder on the stub, which was then sputter coated with an ~10 nm layer of platinum, prior to observation. This technique allows visualization of the fibrils in the dry NFL-TBS40-63 peptide powder.

U-87 MG human GBM cells [7] = assay: Immunocytochemistry of tubulin; type: cell-based; details: 100 μM, 48 hours
Protocol: (§1) To visualize the treatment internalization, 20,000 and 35,000 cells per well for b.End3 murine endothelial cells and U-87 MG human GBM cells, respectively, were seeded in 24-well plates containing one coverslip previously coated with poly (d) lysine 0.1 mg/ml per well and washed three times with 1×DPBS (Sigma-Aldrich; Saint-Louis, USA) and incubated for 24 hours at 37° C. and 5% CO2. Then, the cells were incubated with 100 μM of GC01-G5% (NFL-TBS40-63 peptide (GC01) peptide partially solubilized with 5% glucose) or 100 μM of GC01.1 (NFL-TBS40-63 peptide (GC01) fully solubilized in the formulation of the invention F28C1), or with 1 μg/mL of colchicine for 48 hours at 37° C. At the end of the incubation time, cells were washed three times with 1×DPBS and fixed with 4% paraformaldehyde (15714-Delta microscopies; Mauressac, France) for 10 min at room temperature. Then, treated cells were permeabilized with 0.2% triton X-100 (T9284—Sigma-Aldrich; Saint-Louis, USA) for 10 min, and blocked with 5% bovine serum albumin (A7030—Sigma-Aldrich; Saint-Louis, USA) for 45 min at room temperature. Cells were co-incubated with a mouse anti-a tubulin (ab7750-Abcam; Paris, France) and a rabbit anti-βIII tubulin antibodies at 1:250 (T2200—Sigma-Aldrich; Saint-Louis, USA) overnight at 4° C. […]

[8] = tested on: b.End3 murine endothelial cells; assay: Immunocytochemistry of tubulin; type: cell-based; details: 100 μM, 48 hours
Protocol: as §1

U-87 MG human GBM cells [9] = assay: MTS viability assay (mitochondrial activity); type: cell-based; details: 72 hours, peptide in Clinic vehicle F28C1 compared with Glucose 5%
Protocol: (§2) Cells were seeded in 96-well plates at 1,000 per well for b.End3 murine endothelial cells and F98 rat GBM cells, and 5,000 cells and U-87 MG human GBM cells, and incubated for 24 hours at 37° C. and 5% CO2. Then, the culture media was removed and cells were treated for 72 hours at 37° C. and 5% CO2 with increasing concentrations (25, 50, 100 and 200 μM) of GC01-G5% (NFL-TBS40-63 peptide (GC01) partially solubilized with 5% glucose) or GC01.1 (NFL-TBS40-63 peptide (GC01) fully solubilized in the formulation of the invention F28C1), or with 1 μg/mL of colchicine, or the 5% glucose solution and the Clinic vehicle, diluted in fresh media. Cell viability was measured using the MTS viability assay (ab197010-Abcam; Paris, France). After rinsing the cells with 1×DPBS (Dulbecco's Phosphate Buffered Saline-Gibco; Dardilly, France), 20 μL of MTS reagent was added to each well for 2 hours. The number of living cells is directly proportional to the absorbance measured by the amount of light absorbance at 490 nm in a SpectraMax M2 multi-scanning spectrophotometer (Molecular Devices; San Jose, California, USA).

[10] = tested on: b.End3 murine endothelial cells; assay: MTS viability assay (mitochondrial activity); type: cell-based; details: 72 hours, peptide in Clinic vehicle F28C1 compared with Glucose 5%
Protocol: as §2

U-87 MG cells = assay: Calcein/PI flow cytometry after passage through the endothelial monolayer; type: cell-based, human; details: Transwell conditions + U-87 MG cells, 24 h treatment + 48 hours
Protocol: After 24 hours of treatment, the endothelial cell monolayer was removed, and the U-87 MG cells were incubated at 37° C. for an additional 48 hours. At this time, U-87 MG cells were collected as previously described in section 1.4. To evaluate cell viability were stained with 1 μM of Calcein green (Thermo Fisher Scientific; Massachusetts, USA) for 30 min at room temperature in the dark. Then re-suspended in Propidium Iodide and analyzed by flow cytometry. 10,000 cells were measured for each experiment.

[11] = tested on: U-87 MG cells implanted in the brains of BALB/c Nude mice; assay: In vivo U-87 MG brain tumor in nude mice, tolerance and MALDI-TOF imaging; details: intravenous injection in the formulation of the invention, 1 hour after the final injection
Protocol: Seven-week-old female Balb/c nude mice (Janvier, France) were housed at the university animal facility (Service Commun d'Animalerie Hospitalo-Universitaire—Université d'Angers, France). Animals had free access to water and food throughout the experiment and their behavior and body weight were constantly monitored. All procedures involving animals, were conducted in accordance with protocols approved by ethical committee of the University of Angers and the regional ethics committee on animal experimentations.
Mice were anesthetized by intraperitoneal injection of a mixture of ketamine 10% (80 mg/kg) and xylazine 2% (10 mg/kg). […] The injection coordinates were 2.1 mm lateral, 0.5 mm posterior from the bregma and 2.5 mm deep from the outer border of the cranium. […] Animals were sacrificed 1 hour after the last injection, and brains were removed and frozen in nitrogen vapors.
The MALDI-TOF MS analysis was performed on a Bruker BIFLEX III mass spectrometer (Bruker Daltonics; Germany) equipped with a nitrogen laser (337 nm wavelength, 3 ns laser pulse duration) with reflection and in the positive ion mode. The MS data were acquired over a mass range of m/z 2714 Da with pixels of 100 μm diameter but the capturing area is of 40 μm per pixel. Data have been normalized by Root Mean Square and the image has been smoothed by reducing background noise. […]

[12] = tested on: neuroblastoma and glioblastoma cell lines; details: WO 2011/073207 and Bocquet et al. (2009); cited from earlier work

Compound: NC(=O)CC[C@H](N)C(=O)O [L-glutamine]
effect on the presence of fibrils in NFL-TBS40-63 formulation [1]: did not have any positive effect

Compound: CC[C@H](C)[C@H](N)C(=O)O [L-isoleucine]
effect on the presence of fibrils in NFL-TBS40-63 formulation [1]: did not have any positive effect

Compound: CC(C)C[C@H](N)C(=O)O [L-leucine]
effect on the presence of fibrils in NFL-TBS40-63 formulation [1]: did not have any positive effect

Compound: CSCC[C@H](N)C(=O)O [L-methionine]
effect on the presence of fibrils in NFL-TBS40-63 formulation [1]: did not have any positive effect

Continued, in another order:

effect on the presence of fibrils in NFL-TBS40-63 formulation [1]: did not have any positive effect
Compound: CC(C)[C@H](N)C(=O)O [L-valine]

dissolution of the peptide ([2]; 3 mg/ml in G5% (5% glucose in water for injection), even after heating 1.5 h at 40 to 45° C.): less well dissolved | solubility at 2 min ([2]; 50 mM glutamine and 50 mM arginine, read-out: solubility): < 800 µg/mL | precipitation ([2]; in the presence of sodium or potassium ions): tends to irreversibly precipitate | solubility at 2 min ([2]; in water, read-out: intrinsic aqueous solubility): < 2500 µg/mL | solubility in commonly used parenteral buffer systems ([2]; nearly all commonly used parenteral buffer systems): insoluble | opalescence of the solution ([3]; F28C1 with 25 mM L-alanine, 1.5 mg/mL peptide): slightly opalescent | opalescence of the solution ([3]; F28C1 with 50 mM L-alanine, 1.5 mg/ml peptide): very slightly opalescent | opalescence of the solution ([3]; F28C1 with 112 mM L-alanine, 1.5 mg/ml peptide): slightly opalescent | opalescence of the solution ([3]; F28C1 with 225 mM L-alanine, 1.5 mg/ml peptide): slightly opalescent | opalescence of the solution ([3]; F28C1 with 670 mM L-alanine, 0.5 mg/mL peptide): slightly opalescent | passage of 0.2 μm sterilizing filter ([1]; 1 mg/ml in water): very quickly block | behaviour of pre-filter and sterilizing filters ([1]; 3 mg/ml in G5% (5% glucose in water for injection)): tended to clog up quite quickly | filter grade ([1]; F28C1 with 25 mM L-alanine, 1.5 mg/mL peptide, 1 mL, 13 mm 0.2 μm filter): 2 | filter grade ([1]; F28C1 with 50 mM L-alanine, 1.5 mg/ml peptide, 5 mL, 13 mm 0.2 μm filter): 1 to 2 | filter grade ([1]; F28C1 with 112 mM L-alanine, 1.5 mg/ml peptide, 1 mL, 13 mm 0.2 μm filter): 2 | filter grade ([1]; F28C1 with 225 mM L-alanine, 1.5 mg/ml peptide, 1 mL, 13 mm 0.2 μm filter): 2 to 3 and 3 | filter grade ([1]; F28C1 with 670 mM L-alanine, 0.5 mg/mL peptide, 13 mm 0.2 μm filter): 3 | sterilizing filtration through 0.2 μm ([1]; micronized powder in F28C1, after 0.45 μm pre-filtration): successful | filter grade ([1]; with no alanine): 3 | DLS single peak, particle size ([4]; micronized powder in F28C1, 1.5 hours mixing at ambient temperature (20° C.), prior to pre-filtration): around 300 nm | DLS attenuator value ([4]; solution F28C heated to 40-45° C. before adding the peptide, mixing 1h30): 10 | length of sub-visible fibrillar structures ([5]; self-association): ≤ 2 μm | structures in dry powder by SEM [6]: fibril-like structures
Compound: CC(C)C[C@H](NC(=O)[C@H](CO)NC(=O)[C@H](CO)NC(=O)[C@H](CO)NC(=O)[C@@H](NC(=O)[C@@H]1CCCN1C(=O)[C@H](C)NC(=O)[C@H](CO)NC(=O)[C@H](Cc1ccc(O)cc1)NC(=O)[C@H](CO)NC(=O)[C@H](CO)NC(=O)[C@H](Cc1ccc(O)cc1)NC(=O)CCCC[C@@H]1SC[C@@H]2NC(=O)N[C@@H]21)C(C)C)C(=O)N[C@@H](CO)C(=O)N[C@H](C(=O)N[C@@H](CCCNC(=N)N)C(=O)N[C@@H](CCCNC(=N)N)C(=O)N[C@@H](CO)C(=O)N[C@@H](Cc1ccc(O)cc1)C(=O)N[C@@H](CO)C(=O)N[C@@H](CO)C(=O)N[C@@H](CO)C(=O)N[C@@H](CO)C(=O)NCC(=O)N[C@@H](CO)C(N)=O)C(C)C [NFL-TBS40-63 peptide] (Biotin-YSSYSAPVSSSLSVRRSYSSSSGS-NH2; N-terminus and C-terminus assumed)
number and size of fibrils by TEM ([5]; composition containing 50 mM of L-alanine and 1 mg/mL peptide): significantly reduced; also recorded: virtually no fibrils were visible | fibrillar structures by TEM ([5]; in water, 1 mg/mL and 0.27 mg/ml): fibrillar structure; also recorded: fibril structure | effect on tubulin (immunostaining) (U-87 MG human GBM cells [7]): alteration of tubulin | effect on tubulin (immunostaining) [8]: alteration of tubulin | cytotoxicity profile (cell viability, MTS) (U-87 MG human GBM cells [9]): retains its properties | cytotoxicity profile (cell viability, MTS) [10]: retains its properties | percentage of dead cells (U-87 MG cells; listed as Biot-NFL): 16.6±5.4% | percentage of dead cells (U-87 MG cells; listed as GC01): 30.1±7.9% | peptide in the tumor by MALDI-TOF imaging [11]: accumulation | inhibition of proliferation in vitro [12]: able to inhibit the proliferation
